Where “and” joins values, the source holds several entries; their conditions need not be identical. Identical values can stand only once. Entries after “also recorded” stand apart in the source; their conditions may differ. Peptide text beside a SMILES is read from it. * marks the point of attachment. pNA = O=[N+]([O-])c1ccc(N*)cc1
Legend:
pmDPP4Δ23 = pmDPP4Δ23 (Parabacteroides merdae, UniProt A0AA37KD06); assay type: biochemical; settings: for Effect on pmDPP4Δ23 hydrolytic activity (in words): gpPNA hydrolysis; for EC50 pmDPP4: gpPNA substrate, non-linear fit, sitagliptin and linagliptin data did not fit (R^2 ND)
depression-like behavior = settings: obesogenic diet; cited from earlier work
[1] = test system: T1, pmDPP4Δ23 (headed pmDPP4 in Table 1 and Table S1); test: Colorimetric steady-state kinetics of gpPNA hydrolysis (0.31 to 2.5 mM) without inhibitor, 50 mM Tris-HCl pH 8.3, 37 °C, 380 nm, Lineweaver-Burk analysis.; assay type: biochemical; settings: SD, n = 3; read-out: Km (mM), inhibitor 0 nM
T1 construct: N-terminal 6 x His tag; expressed from pET15b in E. coli BL21-DE3; dimer in solution
Protocol: (§1) The hydrolytic activity of the bacterial DPP4 enzyme was measured using Gly-Pro p-nitroanilide hydrochloride (gpPNA) (Sigma), as described for assessing hsDPP4 activity. […] Briefly, 20 µL of each cell-free supernatant was placed in triplicate in a flat 96-well plate. Two hundred microliters of the respective PNA solutions were plated in duplicate to obtain the standard curve. […] The enzymatic activity ([PNA generated (nM) / hydrolysis time (min)] / pmole enzyme) was quantified between 10 and 30 min of incubation time (linear kinetics). Three independent experiments with different purified protein batches were performed. The same protocol was followed for the murine samples (cecal content and plasma from the portal vein). In the case of the cecal content, the values of DPP4 activity were normalized by the amount of protein, quantified by the Bradford method (Bio-Rad, Hercules, CA).
Figure S3. Gliptin inhibition kinetics on pmDPP4Δ23. Lineweaver-Burk double-reciprocal (1/V and 1/S) plots showing pmDPP4Δ23 (bottom panels) and hsDPP4 (top panels) […]
(100 nM, burgundy lines) concentrations. The apparent Km was calculated respectively from inhibitor-associated data points using linear regression to find intersection point at the y-axis (1/S). V, reaction velocity (nmol PNA min-1 pmole enzyme-1); S, substrate concentration (mM gpPNA).
(1 picture or pasted object on this page, not shown here) […]

[2] = test system: T1, pmDPP4Δ23 (headed pmDPP4 in Table 1 and Table S1); test: Overall Km for gpPNA without inhibitor, from the colorimetric kinetics at pH 8.3 and 37 °C.; assay type: biochemical; settings: read-out: overall estimated Km
Protocol: as §1

pmDPP4Δ23, sequence (A0AA37KD06 entry or part of it, stated change not applied): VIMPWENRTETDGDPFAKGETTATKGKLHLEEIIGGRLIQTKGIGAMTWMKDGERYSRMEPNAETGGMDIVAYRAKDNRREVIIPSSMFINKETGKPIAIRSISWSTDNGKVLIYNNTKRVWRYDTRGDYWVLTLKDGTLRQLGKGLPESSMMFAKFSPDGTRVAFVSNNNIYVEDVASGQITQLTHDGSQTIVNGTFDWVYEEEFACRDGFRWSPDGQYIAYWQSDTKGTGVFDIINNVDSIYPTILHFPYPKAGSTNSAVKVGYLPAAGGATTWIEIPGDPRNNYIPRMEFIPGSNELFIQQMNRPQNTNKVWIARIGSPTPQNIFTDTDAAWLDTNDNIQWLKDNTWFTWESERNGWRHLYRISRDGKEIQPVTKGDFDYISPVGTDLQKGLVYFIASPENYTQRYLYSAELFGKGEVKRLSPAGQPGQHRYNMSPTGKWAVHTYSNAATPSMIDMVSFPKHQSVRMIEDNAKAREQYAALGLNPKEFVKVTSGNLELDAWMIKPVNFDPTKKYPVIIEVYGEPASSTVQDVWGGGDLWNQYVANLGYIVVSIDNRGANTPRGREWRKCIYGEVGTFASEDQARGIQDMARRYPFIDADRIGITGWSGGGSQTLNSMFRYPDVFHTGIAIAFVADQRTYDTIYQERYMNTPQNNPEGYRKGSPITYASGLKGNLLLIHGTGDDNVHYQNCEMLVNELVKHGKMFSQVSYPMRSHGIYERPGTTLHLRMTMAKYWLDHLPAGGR

SMILES | Effect on pmDPP4Δ23 hydrolytic activity (in words) (pmDPP4Δ23) | EC50 pmDPP4 (pmDPP4Δ23) | other results
CC#CCn1c(N2CCC[C@@H](N)C2)nc2c1c(=O)n(Cc1nc(C)c3ccccc3n1)c(=O)n2C [Linagliptin, linagliptin] | not inhibited; also recorded: almost null effect; also recorded: minimally inhibited | – | –
N#C[C@@H]1C[C@@H]2C[C@@H]2N1C(=O)[C@@H](N)C12CC3CC(CC(O)(C3)C1)C2 [Saxagliptin, saxagliptin] | – | nanomolar range | –
N[C@@H](CC(=O)N1CCn2c(nnc2C(F)(F)F)C1)Cc1cc(F)c(F)cc1F [Sitagliptin, sitagliptin] | not inhibited; also recorded: almost null effect; also recorded: minimally inhibited | – | Depression-like behavior associated with increased systemic DPP4 activity (depression-like behavior): counteracted
N#C[C@@H]1CCCN1C(=O)CNC12CC3CC(CC(O)(C3)C1)C2 [Vildagliptin, vildagliptin] | – | nanomolar range | –
NCC(=O)N1CCC[C@H]1C(=O)Nc1ccc([N+](=O)[O-])cc1 [gpPNA, Gly-Pro p-nitroanilide] (H-Gly-Pro-pNA) | – | – | Km [1]: 1.6 mM and 1.79 mM and 1.66 mM and 1.46 mM; Km [2]: 1630 µM

— PMC11221189, “Gut microbiota DPP4-like enzymes are increased in type-2 diabetes and contribute to incretin inactivation” (Genome Biology, 2024)
